Source: article PMC2190180 (The Journal of Experimental Medicine, 1976)

Assays:
[1] = test system: rabbit neutrophils; type: cell-based; details: for induction of lysozyme release at highest concentrations: at concentrations of 1 x 10-~ M or higher (so in the source)
[2] = test system: rabbit neutrophils; type: cell-based; details: for beta-Glucuronidase release Relative activity ± SE: Table III, relative to F-Met-Leu = 1.0; for induction of beta-glucuronidase release at highest concentrations: at concentrations of 1 x 10-~ M or higher (so in the source)
[3] = test system: neutrophils; details: appears competitive; cited from earlier work
[4] = test system: rabbit peritoneal neutrophils; assay: Assay of relative migratory; type: cell-based; details: for times as active as F-Met-Leu, experiment of Fig. 1: single representative experiment (Fig. 1); for activity relative to F-Met-Leu as stated in running text: rounded in text from Table II
[5] = test system: rabbit peritoneal neutrophils; details: cited from earlier work
[6] = test system: rabbit peritoneal neutrophils; assay: Test of whether the peptides are chemotactic; type: cell-based; details: for nature of induced migration: directed as well as random locomotion

Met-Leu-Leu
induction of lysozyme release at highest concentrations [1]: did not induce release
beta-Glucuronidase release Relative activity ± SE [2]: > 0.0001
induction of beta-glucuronidase release at highest concentrations [2]: did not induce release

F-Met-Leu
Lysozyme release Relative activity ± SE ([1]; Table III, relative to F-Met-Leu = 1.0): 1
beta-Glucuronidase release Relative activity ± SE [2]: 1
effect on initial rates of erythrophagocytosis [3]: inhibit

Met-Leu-Phe
times as active as F-Met-Leu, experiment of Fig. 1 [4]: 0.43

F-Met-His
chemotactic activity compared with F-Met-Leu [5]: distinctly less active

F-Met-Met-Met
activity relative to parent dipeptide F-Met-Met (Results) ([4]; chemotactic activity): 120- to 150 fold
fold more active than the corresponding unformylated peptide ([4]; chemotactic activity): approximately 20,000 fold
measured mean distance from top of filter to front two PMNs ([6]; Table I B, above 10^-6 M, below 10^-6 M (uniform), 80 min 37C): 56 µm
calculated distance for purely random migration (bracketed) ([6]; Table I B, above 10^-6 M, below 10^-7 M): 52 µm
measured mean distance from top of filter to front two PMNs ([6]; Table I B, above 10^-6 M, below 10^-7 M, 80 min 37C): 48 µm
calculated distance for purely random migration (bracketed) ([6]; Table I B, above 10^-6 M, below 10^-8 M): 52 µm
measured mean distance from top of filter to front two PMNs ([6]; Table I B, above 10^-6 M, below 10^-8 M, 80 min 37C): 34 µm
calculated distance for purely random migration (bracketed) ([6]; Table I B, above 10^-6 M, below 10^-9 M): 52 µm
measured mean distance from top of filter to front two PMNs ([6]; Table I B, above 10^-6 M, below 10^-9 M, 80 min 37C): 38 µm
calculated distance for purely random migration (bracketed) ([6]; Table I B, above 10^-7 M, below 10^-6 M): 38 µm
measured mean distance from top of filter to front two PMNs ([6]; Table I B, above 10^-7 M, below 10^-6 M, 80 min 37C): 60 µm
measured mean distance from top of filter to front two PMNs ([6]; Table I B, above 10^-7 M, below 10^-7 M (uniform), 80 min 37C): 34 µm
calculated distance for purely random migration (bracketed) ([6]; Table I B, above 10^-7 M, below 10^-8 M): 34 µm
measured mean distance from top of filter to front two PMNs ([6]; Table I B, above 10^-7 M, below 10^-8 M, 80 min 37C): 36 µm
calculated distance for purely random migration (bracketed) ([6]; Table I B, above 10^-7 M, below 10^-9 M): 33 µm
measured mean distance from top of filter to front two PMNs ([6]; Table I B, above 10^-7 M, below 10^-9 M, 80 min 37C): 34 µm
calculated distance for purely random migration (bracketed) ([6]; Table I B, above 10^-8 M, below 10^-6 M): 35 µm
measured mean distance from top of filter to front two PMNs ([6]; Table I B, above 10^-8 M, below 10^-6 M, 80 min 37C): 62 µm
calculated distance for purely random migration (bracketed) ([6]; Table I B, above 10^-8 M, below 10^-7 M): 30 µm
measured mean distance from top of filter to front two PMNs ([6]; Table I B, above 10^-8 M, below 10^-7 M, 80 min 37C): 47 µm
measured mean distance from top of filter to front two PMNs ([6]; Table I B, above 10^-8 M, below 10^-8 M (uniform), 80 min 37C): 30 µm
calculated distance for purely random migration (bracketed) ([6]; Table I B, above 10^-8 M, below 10^-9 M): 30 µm
measured mean distance from top of filter to front two PMNs ([6]; Table I B, above 10^-8 M, below 10^-9 M, 80 min 37C): 27 µm
calculated distance for purely random migration (bracketed) ([6]; Table I B, above 10^-9 M, below 10^-6 M): 35 µm
measured mean distance from top of filter to front two PMNs ([6]; Table I B, above 10^-9 M, below 10^-6 M, 80 min 37C): 69 µm
calculated distance for purely random migration (bracketed) ([6]; Table I B, above 10^-9 M, below 10^-7 M): 30 µm
measured mean distance from top of filter to front two PMNs ([6]; Table I B, above 10^-9 M, below 10^-7 M, 80 min 37C): 57 µm
calculated distance for purely random migration (bracketed) ([6]; Table I B, above 10^-9 M, below 10^-8 M): 27 µm
measured mean distance from top of filter to front two PMNs ([6]; Table I B, above 10^-9 M, below 10^-8 M, 80 min 37C): 30 µm
nature of induced migration [6]: truly chemotactic

F-Met-Met-Ala
activity relative to F-Met-Met (Discussion) ([4]; chemotactic activity): essentially the same
activity relative to parent dipeptide F-Met-Met (Results) ([4]; chemotactic activity): same activity

Met-Leu-Glu
times less active than F-Met-Leu-Phe ([4]; induced migration and enzyme release): 26 million
induction of lysozyme release at highest concentrations [1]: did not induce release
induction of beta-glucuronidase release at highest concentrations [2]: did not induce release

F-Met-Leu-Arg
activity relative to F-Met-Leu as stated in running text ([4]; chemotactic activity): one-third

Met-Met-Ala
induction of lysozyme release at highest concentrations [1]: did not induce release
beta-Glucuronidase release Relative activity ± SE [2]: > 0.0001
induction of beta-glucuronidase release at highest concentrations [2]: did not induce release

CC(C)C[C@H](NC=O)C(=O)O [F-leucine]
chemotactic activity ([5]; not as active as F-methionine): chemotactic

F-Met-Leu-Glu
times as active as F-Met-Leu, experiment of Fig. 1 [4]: 0.71

F-Met-Glu
chemotactic activity compared with F-Met-Leu [5]: distinctly less active

F-Met-Phe-Leu
fold more active than the corresponding unformylated peptide ([4]; chemotactic activity): around 3,000 fold

F-Leu-Trp-Met-Arg
drop in activity relative to F-Leu-Trp-Met ([4]; chemotactic activity): 40 fold

F-Met-Met-Phe
activity relative to parent dipeptide F-Met-Met (Results) ([4]; chemotactic activity): 3,500-4,000 fold

F-Met
induction of lysozyme release at highest concentrations [1]: did not induce release
beta-Glucuronidase release Relative activity ± SE [2]: > 0.00001
induction of beta-glucuronidase release at highest concentrations [2]: did not induce release

F-Met-Leu-Leu
activity relative to F-Met-Leu as stated in running text ([4]; chemotactic activity): 9 fold

F-Met-Leu-Phe
fold more active than the corresponding unformylated peptide ([4]; chemotactic activity): approximately 10,000 fold
activity relative to F-Met-Leu as stated in running text ([4]; chemotactic activity): 5,000 fold
times as active as F-Met-Leu, experiment of Fig. 1 [4]: 7,300
measured mean distance from top of filter to front two PMNs ([6]; Table I A, uniform 1.66 x 10^-10 M above and below, 60 min 37C): 71 µm
measured mean distance from top of filter to front two PMNs ([6]; Table I A, uniform 1.85 x 10-11 M above and below, 60 min 37C): 40 µm
measured mean distance from top of filter to front two PMNs ([6]; Table I A, uniform 5 x 10^-10 M above and below, 60 min 37C): 73 µm
measured mean distance from top of filter to front two PMNs ([6]; Table I A, uniform 5.55 x 10-11 M above and below, 60 min 37C): 60 µm
nature of induced migration [6]: truly chemotactic

Met-Phe-Leu
induction of lysozyme release at highest concentrations [1]: did not induce release
beta-Glucuronidase release Relative activity ± SE [2]: > 0.0001
induction of beta-glucuronidase release at highest concentrations [2]: did not induce release
